Laboratory results: article PMC9596378, “Discovery and molecular basis of subtype-selective cyclophilin inhibitors” (Nature Chemical Biology, 2022)

How the values were obtained:
Assay in all cases: Anisotropy (fluorescence polarization) binding assay
[1] = target: CypD (Homo sapiens, UniProt P30405); parameters: PPIF (UniProtKB Entry P30405: residues 45–207); made in house; host or cells: E. coli BL21(DE3); settings: 0.5 nM fluorescein-labeled macrocycle
Protocol: (§1) Final assay volume was 100 µL with 0.25% DMSO. Fluorescence anisotropy was then measured using a Tecan Spark plate reader using 492 nm/523 nm excitation/emission settings.

[2] = target: Cyp40 (Homo sapiens, UniProt Q08752); parameters: PPID (UniProtKB Entry Q08752: residues 1–183); made in house; host or cells: E. coli BL21(DE3); settings: 0.5 nM fluorescein-labeled macrocycle
Chain of Cyp40 (Q08752 1-183): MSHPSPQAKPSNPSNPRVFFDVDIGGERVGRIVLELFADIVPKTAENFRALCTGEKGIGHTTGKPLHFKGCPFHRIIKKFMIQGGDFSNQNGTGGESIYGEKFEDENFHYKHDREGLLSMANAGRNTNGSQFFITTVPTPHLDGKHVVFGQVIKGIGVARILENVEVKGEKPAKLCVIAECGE
Protocol: as §1

[3] = target: T1, SDCCAG-10(GST) (Homo sapiens, UniProt Q6UX04); settings: 0.5 nM fluorescein-labeled macrocycle
T1 construct: GST; purchased Abnova
T1 sequence (Q6UX04 whole entry): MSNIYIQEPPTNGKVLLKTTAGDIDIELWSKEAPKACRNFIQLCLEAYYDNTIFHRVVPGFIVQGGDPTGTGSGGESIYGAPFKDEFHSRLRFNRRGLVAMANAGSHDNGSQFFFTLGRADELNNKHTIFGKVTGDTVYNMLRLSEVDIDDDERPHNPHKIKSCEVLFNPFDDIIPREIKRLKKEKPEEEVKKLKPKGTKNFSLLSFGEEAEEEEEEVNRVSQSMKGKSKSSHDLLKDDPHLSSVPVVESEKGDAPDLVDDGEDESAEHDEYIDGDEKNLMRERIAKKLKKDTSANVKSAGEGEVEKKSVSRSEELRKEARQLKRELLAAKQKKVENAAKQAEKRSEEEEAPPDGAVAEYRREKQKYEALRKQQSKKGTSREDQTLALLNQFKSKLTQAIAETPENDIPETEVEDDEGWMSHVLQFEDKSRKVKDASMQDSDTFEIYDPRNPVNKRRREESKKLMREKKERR
Protocol: as §1

[4] = target: T2, PPIL1 (Homo sapiens, UniProt Q9Y3C6); settings: 0.5 nM fluorescein-labeled macrocycle
T2 construct: PPIL1 (UniProtKB Entry Q9Y3C6: residues 1–166); made in house; host or cells: E. coli BL21(DE3)
T2 sequence (Q9Y3C6 1-166): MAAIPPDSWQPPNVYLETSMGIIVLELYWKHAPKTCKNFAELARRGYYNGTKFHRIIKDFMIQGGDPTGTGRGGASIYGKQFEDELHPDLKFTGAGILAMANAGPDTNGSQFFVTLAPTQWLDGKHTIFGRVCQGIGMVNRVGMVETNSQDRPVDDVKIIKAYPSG
Protocol: as §1

[5] = target: T3, PPWD1 (Homo sapiens, UniProt Q96BP3); settings: 0.5 nM fluorescein-labeled macrocycle
T3 construct: PPWD1 (UniProtKB Entry Q96BP3: residues 473–646); host or cells: E. coli BL21(DE3)
T3 sequence (Q96BP3 473-646): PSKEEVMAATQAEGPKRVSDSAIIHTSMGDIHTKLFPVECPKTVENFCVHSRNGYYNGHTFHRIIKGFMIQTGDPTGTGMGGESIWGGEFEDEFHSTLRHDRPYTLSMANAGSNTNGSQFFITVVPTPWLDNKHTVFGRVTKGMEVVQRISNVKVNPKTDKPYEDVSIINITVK
Protocol: as §1

[6] = target: T4, CypE K217A (Homo sapiens, UniProt Q9UNP9, K217A); settings: 0.5 nM A26-Fl
T4 construct: Lane 5- GS-CypE K217A (131-301);; His6 tag with thrombin site (pET28a LIC); GS remnant stays on the N-terminus (N, cleaved yes); host or cells: E. coli BL21(DE3)
T4 sequence (Q9UNP9 131-301 K217A): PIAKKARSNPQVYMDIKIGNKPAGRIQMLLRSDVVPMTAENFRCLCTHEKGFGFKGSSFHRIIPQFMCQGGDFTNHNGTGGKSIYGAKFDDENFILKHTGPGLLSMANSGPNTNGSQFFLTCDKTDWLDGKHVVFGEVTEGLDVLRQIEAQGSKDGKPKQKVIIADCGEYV
Protocol: as §1

[7] = target: T5, CypA (Homo sapiens, UniProt P62937); settings: 0.5 nM fluorescein-labeled macrocycle
T5 construct: PPIA (UniProtKB Entry P62937: residues 1–165); made in house; host or cells: E. coli BL21(DE3)
T5 sequence (P62937 whole entry, the tested form may be a part): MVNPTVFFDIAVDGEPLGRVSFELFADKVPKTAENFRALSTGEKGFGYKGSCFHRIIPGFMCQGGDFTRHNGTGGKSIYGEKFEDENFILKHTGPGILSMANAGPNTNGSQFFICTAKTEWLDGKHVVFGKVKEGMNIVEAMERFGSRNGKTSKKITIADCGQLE
Protocol: as §1

[8] = target: T6, PPIL2 (Homo sapiens, UniProt Q13356); settings: 0.5 nM fluorescein-labeled macrocycle
T6 construct: PPIL2 (UniProtKB Entry Q13356: residues 280–457); His6 tag with thrombin site (pET28a LIC); GS remnant after cleavage (N, cleaved yes); host or cells: E. coli BL21(DE3)
T6 sequence (Q13356 280-457): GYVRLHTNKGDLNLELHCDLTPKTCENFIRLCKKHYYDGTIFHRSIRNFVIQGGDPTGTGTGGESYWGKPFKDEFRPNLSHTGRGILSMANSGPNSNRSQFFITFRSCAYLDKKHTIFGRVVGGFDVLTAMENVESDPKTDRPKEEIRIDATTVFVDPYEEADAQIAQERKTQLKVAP
Protocol: as §1

[9] = target: T7, CypE (Homo sapiens, UniProt Q9UNP9); settings: 0.5 nM fluorescein-labeled macrocycle
T7 construct: PPIE (UniProtKB Entry Q9UNP9: residues 131–301); host or cells: E. coli BL21(DE3)
T7 sequence (Q9UNP9 131-301): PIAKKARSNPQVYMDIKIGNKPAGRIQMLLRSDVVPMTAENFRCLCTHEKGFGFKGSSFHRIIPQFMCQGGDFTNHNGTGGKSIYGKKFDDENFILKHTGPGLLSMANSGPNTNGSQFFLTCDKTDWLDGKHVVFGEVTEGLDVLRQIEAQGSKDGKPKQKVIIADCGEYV
Protocol: as §1

[10] = target: T8, CypC (Homo sapiens, UniProt P45877); settings: 0.5 nM fluorescein-labeled macrocycle
T8 construct: PPIC (UniProtKB Entry P45877: residues 24–212); host or cells: E. coli BL21(DE3)
T8 sequence (P45877 24-212): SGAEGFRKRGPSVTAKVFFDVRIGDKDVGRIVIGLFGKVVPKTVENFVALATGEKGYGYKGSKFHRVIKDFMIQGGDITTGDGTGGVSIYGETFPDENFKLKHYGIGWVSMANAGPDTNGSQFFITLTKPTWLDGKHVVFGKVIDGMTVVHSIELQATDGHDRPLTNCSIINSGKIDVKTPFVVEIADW
Protocol: as §1

[11] = target: T9, CypE K212A (Homo sapiens, UniProt Q9UNP9, K212A); settings: 0.5 nM A26-Fl
T9 construct: Lane 4- GS-CypE K212A (131-301);; His6 tag with thrombin site (pET28a LIC); GS remnant stays on the N-terminus (N, cleaved yes); host or cells: E. coli BL21(DE3)
T9 sequence (Q9UNP9 131-301 K212A): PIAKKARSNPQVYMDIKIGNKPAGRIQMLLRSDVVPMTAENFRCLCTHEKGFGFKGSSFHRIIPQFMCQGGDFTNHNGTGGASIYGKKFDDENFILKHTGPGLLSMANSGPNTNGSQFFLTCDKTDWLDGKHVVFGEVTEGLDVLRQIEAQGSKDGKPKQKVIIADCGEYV
Protocol: as §1

[12] = target: T10, PPIL6(C-Myc/DDK) (Homo sapiens, UniProt Q8IXY8); settings: 0.5 nM fluorescein-labeled macrocycle
T10 construct: Myc; DDK (FLAG); purchased Millipore-Sigma
T10 sequence (Q8IXY8 whole entry): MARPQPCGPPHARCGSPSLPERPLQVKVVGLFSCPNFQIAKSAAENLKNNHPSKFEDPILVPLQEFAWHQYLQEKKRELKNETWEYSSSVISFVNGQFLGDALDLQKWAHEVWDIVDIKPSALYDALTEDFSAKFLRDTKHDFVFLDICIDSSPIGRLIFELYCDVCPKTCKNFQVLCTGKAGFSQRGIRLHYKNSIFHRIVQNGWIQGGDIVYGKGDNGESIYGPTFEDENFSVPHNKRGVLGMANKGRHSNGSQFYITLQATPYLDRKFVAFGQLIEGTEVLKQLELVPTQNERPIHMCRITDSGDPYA
Protocol: as §1

[13] = target: T11, CypH (Homo sapiens, UniProt O43447); settings: 0.5 nM fluorescein-labeled macrocycle
T11 construct: PPIH (UniProtKB Entry O43447: residues 1–177); His6 with TEV site (2BT vector leader) (N); made in house; host or cells: E. coli BL21(DE3)
T11 sequence (O43447 whole entry, the tested form may be a part): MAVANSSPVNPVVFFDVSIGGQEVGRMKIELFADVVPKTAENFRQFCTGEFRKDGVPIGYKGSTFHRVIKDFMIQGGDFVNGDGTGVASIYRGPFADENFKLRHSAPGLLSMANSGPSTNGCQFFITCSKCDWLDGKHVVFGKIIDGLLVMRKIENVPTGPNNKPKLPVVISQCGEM
Protocol: as §1

[14] = target: T12, PPIL3 (Homo sapiens, UniProt Q9H2H8); settings: 0.5 nM fluorescein-labeled macrocycle
T12 construct: PPIL3 (UniProtKB Entry Q9H2H8: residues 1–161); His6 tag with TEV site (2BT vector); SNA remnant stays on the N-terminus (N, cleaved yes); made in house; host or cells: E. coli BL21(DE3)
T12 sequence (Q9H2H8 whole entry, the tested form may be a part): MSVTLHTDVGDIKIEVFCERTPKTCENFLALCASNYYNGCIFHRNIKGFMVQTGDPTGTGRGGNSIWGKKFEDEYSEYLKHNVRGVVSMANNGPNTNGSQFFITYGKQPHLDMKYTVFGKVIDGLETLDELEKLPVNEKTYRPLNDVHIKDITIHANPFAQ
Protocol: as §1

[15] = target: T13, CypG (Homo sapiens, UniProt Q13427); settings: 0.5 nM fluorescein-labeled macrocycle
T13 construct: PPIG (UniProtKB Entry Q13427: residues 1–179); His6 with thrombin site (pET28a LIC leader) (N); host or cells: E. coli BL21(DE3)
T13 sequence (Q13427 1-179): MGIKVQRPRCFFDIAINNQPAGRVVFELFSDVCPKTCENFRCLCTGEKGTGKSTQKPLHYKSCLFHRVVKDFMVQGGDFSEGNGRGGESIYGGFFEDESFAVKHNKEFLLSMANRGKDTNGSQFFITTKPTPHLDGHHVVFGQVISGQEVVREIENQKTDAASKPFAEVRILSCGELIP
Protocol: as §1

[16] = target: T14, PPIL4(Full Length) (Homo sapiens, UniProt Q8WUA2); settings: 0.5 nM fluorescein-labeled macrocycle
T14 construct: PPIL4 (full length); purchased Millipore-Sigma
T14 sequence (Q8WUA2 whole entry): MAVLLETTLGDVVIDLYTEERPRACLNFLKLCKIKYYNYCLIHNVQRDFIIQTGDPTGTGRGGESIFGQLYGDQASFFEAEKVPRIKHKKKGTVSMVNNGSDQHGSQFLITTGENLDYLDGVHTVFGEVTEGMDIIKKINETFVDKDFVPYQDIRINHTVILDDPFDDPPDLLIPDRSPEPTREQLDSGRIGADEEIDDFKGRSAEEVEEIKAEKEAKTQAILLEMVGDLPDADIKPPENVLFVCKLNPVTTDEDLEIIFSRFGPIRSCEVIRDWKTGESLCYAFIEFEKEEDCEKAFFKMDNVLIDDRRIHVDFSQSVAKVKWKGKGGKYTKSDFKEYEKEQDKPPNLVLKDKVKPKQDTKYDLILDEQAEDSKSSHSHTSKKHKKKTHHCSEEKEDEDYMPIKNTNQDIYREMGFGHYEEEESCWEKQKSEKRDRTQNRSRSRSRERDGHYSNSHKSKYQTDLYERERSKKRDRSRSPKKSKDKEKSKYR
Protocol: as §1

[17] = target: T15, CypB (Homo sapiens, UniProt P23284); settings: 0.5 nM fluorescein-labeled macrocycle
T15 construct: PPIB (UniProtKB Entry P23284: residues 34–216); His6 with TEV site (2BT vector leader) (N); made in house; host or cells: E. coli BL21(DE3)
T15 sequence (P23284 34-216): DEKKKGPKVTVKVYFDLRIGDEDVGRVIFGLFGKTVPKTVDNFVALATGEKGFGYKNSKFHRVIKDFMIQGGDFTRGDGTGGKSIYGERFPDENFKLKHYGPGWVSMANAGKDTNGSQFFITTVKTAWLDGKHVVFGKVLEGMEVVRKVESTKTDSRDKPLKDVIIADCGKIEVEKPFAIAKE
Protocol: as §1

[18] = target: T16, CypE K218A (Homo sapiens, UniProt Q9UNP9, K218A); settings: 0.5 nM A26-Fl
T16 construct: Lane 6- GS-CypE K218A (131-301);; His6 tag with thrombin site (pET28a LIC); GS remnant stays on the N-terminus (N, cleaved yes); host or cells: E. coli BL21(DE3)
T16 sequence (Q9UNP9 131-301 K218A): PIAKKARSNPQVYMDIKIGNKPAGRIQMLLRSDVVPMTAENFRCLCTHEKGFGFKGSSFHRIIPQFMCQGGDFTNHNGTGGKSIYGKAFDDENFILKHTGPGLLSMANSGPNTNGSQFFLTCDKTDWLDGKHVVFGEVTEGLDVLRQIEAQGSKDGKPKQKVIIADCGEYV
Protocol: as §1

[19] = target: T17, NKTR (Homo sapiens, UniProt P30414); settings: 0.5 nM fluorescein-labeled macrocycle
T17 construct: NKTR (UniProtKB Entry P30414: residues 7–179); host or cells: E. coli BL21(DE3)
T17 sequence (P30414 7-179): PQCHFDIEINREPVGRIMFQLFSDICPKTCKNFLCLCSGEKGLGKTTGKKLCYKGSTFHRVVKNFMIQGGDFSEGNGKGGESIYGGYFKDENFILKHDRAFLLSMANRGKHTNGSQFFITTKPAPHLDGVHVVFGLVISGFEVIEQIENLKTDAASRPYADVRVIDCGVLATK
Protocol: as §1

Chain of CypD (P30405 45-207): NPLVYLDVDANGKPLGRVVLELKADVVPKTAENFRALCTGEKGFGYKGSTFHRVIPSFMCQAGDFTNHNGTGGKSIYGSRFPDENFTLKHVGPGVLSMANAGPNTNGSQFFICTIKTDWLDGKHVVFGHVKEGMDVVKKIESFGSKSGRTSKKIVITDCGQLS

Kd [1]: 17 ± 2 nM | Kd [2]: 170 ± 20 nM | Kd [3]: > 1000 nM | Kd [4]: 230 ± 40 nM | Kd [5]: 1100 ± 600 nM | Kd [6]: 70 ± 10 nM | Kd [7]: 51 ± 0.7 nM | Kd [8]: > 10000 nM | Kd [9]: 100 ± 30 nM | Kd [10]: 150 ± 30 nM | Kd [11]: 130 ± 30 nM | Kd [12]: > 1000 nM | Kd [13]: 600 ± 100 nM | Kd [14]: 1700 ± 600 nM | Kd [15]: 170 ± 10 nM | Kd [16]: > 1000 nM | Kd [17]: 34 ± 5 nM | Kd [18]: 70 ± 20 nM | Kd [19]: 1500 ± 400 nM
SMILES: O=C1/C=C/C(=O)N2CCC[C@](Cc3ccccc3)(C2)C(=O)N[C@@H](Cc2ccco2)C(=O)NCc2ccccc2CC(=O)N[C@H](C(=O)NCCCOCCOCCOCCCNC(=O)c2ccc3c(c2)C(=O)OC32c3ccc(O)cc3Oc3cc(O)ccc32)CCN1 [Compound A26-Fl]
